One experiment concerns the target HSD17B14 (Homo sapiens (Human), UniProt Q9BPX1). Put plainly: LC/MS estrone detection assay for HSD17B14 activity (estradiol to estrone). The following applies: selectivity for HSD17B13 over HSD17B14. In kind it is biochemical. The protocol:
The liquid chromatography/mass spectrometry (LC/MS) estrone detection assay monitors the conversion of estradiol to estrone by HSD17B14. This assay was undertaken in a 96 well plates (Eppendorf deep well), in an 80 μl reaction volume containing: 8 μM of estradiol (E2; Cayman); 4 mM NAD+(Sigma); 120 nM HSD17B14 enzyme (in-house E. coli expressed His-tagged, purified, soluble protein); 1M potassium phosphate buffer pH 7.4, and 1.2% vehicle (DMSO). Reactions were incubated for 2 hours at 37° C. Estradiol (E2) conversion to estrone (E1) was quantitated by LC-MS/MS based analyte detection for E1 using LCMS grade reagents.
Reactions were terminated by the addition of two volumes of acetonitrile (MeCN; LCMS grade) containing deuterated (D4)-E1 used as internal standard (Clear Synth; 500 ng/mL final concentration). Samples were applied to pre-prepared Bond Elut-C18 extraction cartridges (3 mL; Agilent). The cartridges were washed with 1.5 mL water followed by 1.5 mL 5% aqueous methanol, and dried for 5 minutes under vacuum. They were then eluted with 4.5 mL MeCN. The eluates were dried under nitrogen and re-suspended in 200 μL of 60% methanol (LCMS grade) before submission for analysis. Standard curves of E2 and E1 in 4% DMSO were included for quantification.
Analysis of samples was performed on a XBridge BEH C18 column (Waters) using 0.1% Diethyl Amine in MeCN (mobile phase A) and 0.1% Diethyl Amine in milli-Q water (mobile phase B) in a 3 min gradient from 0-25% B. Analytes were detected in negative mode using MRM analysis, with E2 having a RT of 1.89 min and E1 having a RT of 2.07 min. Activity of the enzyme in the absence of NAD+ was used to evaluate specificity of conversion. Enzyme activity in the presence of test samples was expressed as a percentage of the uninhibited enzyme in the presence of 1.2% DMSO vehicle only, and plotted versus inhibitor concentration. Non-linear regression was performed using a four-parameter logistic model and GraphPad Prism software. All assessments were undertaken in duplicate evaluations, which were pooled during the extraction process and subsequently injected as duplicates for LC-MS/MS analysis.

The next experiment deals with HSD17B13 (Homo sapiens (Human), UniProt Q7Z5P4). In words: LC/MS estrone detection assay for HSD17B13 activity (estradiol to estrone). In kind it is biochemical. The following applies: estradiol substrate, LCMS; read-out: HSD17B13 Inhibition_Estradiol Substrate_LCMS: Ki. The method, then:
The liquid chromatography/mass spectrometry (LC/MS) estrone detection assay monitors the conversion of estradiol to estrone by HSD17B13. This assay was undertaken in a 96 wp format (Eppendorf deep well Plate 96/500) in an 80 μl reaction volume containing: 4 μM of Estradiol (E2; Cayman; Ser. No. 10/006,315), 6 mM NAD+(Sigma; #N0623) and 30 nM HSD17B13 enzyme (in-house; E. coli expressed His-tagged, purified, soluble protein) in a reaction containing 1M potassium phosphate buffer pH 7.4, with 0.5% vehicle (DMSO). Reactions were incubated for 2 hours at 26.5° C., and estradiol (E2) conversion to estrone (E1) was quantitated by LC-MS/MS based analyte detection for both E2 and E1 using LCMS grade reagents.
Reactions were terminated by the addition of two volumes of acetonitrile (MeCN; LCMS grade; CAS #75/05/8) containing deuterated (D4)-E1 used as internal standard (Clear Synth; #CS-T-54273; 500 ng/mL final concentration). Samples were applied to pre-prepared Bond Elut-C18 extraction cartridges (3 mL; Agilent; Ser. No. 12/102,028), washed and eluted in MeCN. Eluates were dried under nitrogen and re-suspended in 60% methanol (LCMS grade methanol; CAS #67/56/1) before submission for analysis. Aqueous linearity for E2 and E1 were included for quantification.
Analysis of samples was undertaken on a XBridge BEH C18 column (Waters; #186003033) using 0.1% Diethyl Amine in MeCN (mobile phase A; DEA CAS #109-89-7) and 0.1% Diethyl Amine in milli-Q water (mobile phase B) in a 3 min gradient allowing 25% B. Analytes were detected in negative mode using MRM analysis, with E2 having a RT of 1.85 min and E1 having a RT of 2 min. Activity of the enzyme, in the absence of NAD+, was used to evaluate specificity of conversion. Enzyme activity in the presence of test samples was expressed as a percentage of the uninhibited enzyme activity, and plotted versus inhibitor concentration. Non-linear regression was performed using a four-parameter logistic model and GraphPad Prism software (GraphPad Software, La Jolla, CA). All assessments were undertaken in duplicate evaluations and pooled during extraction process and subsequently injected as duplicates for LC-MS/MS analysis.

The values that follow come from US20250100993A1, “2-SUBSTITUTED THIAZOLE HSD17B13 INHIBITORS AND USES THEREOF” (Inipharm, Inc., priority 2022, published 2025).

Broadly, the Ki is a measure of affinity in units of concentration, obtained from inhibition or displacement.

HSD17B14, sequence (Q9BPX1 whole entry): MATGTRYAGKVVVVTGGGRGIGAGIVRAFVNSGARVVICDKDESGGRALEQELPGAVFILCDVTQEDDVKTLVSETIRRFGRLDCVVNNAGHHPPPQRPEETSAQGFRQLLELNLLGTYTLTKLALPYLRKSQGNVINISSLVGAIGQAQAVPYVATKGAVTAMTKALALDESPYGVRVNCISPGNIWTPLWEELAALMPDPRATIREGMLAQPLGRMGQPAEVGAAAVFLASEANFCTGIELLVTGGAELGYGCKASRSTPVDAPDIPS
HSD17B13, sequence (Q7Z5P4 20-300): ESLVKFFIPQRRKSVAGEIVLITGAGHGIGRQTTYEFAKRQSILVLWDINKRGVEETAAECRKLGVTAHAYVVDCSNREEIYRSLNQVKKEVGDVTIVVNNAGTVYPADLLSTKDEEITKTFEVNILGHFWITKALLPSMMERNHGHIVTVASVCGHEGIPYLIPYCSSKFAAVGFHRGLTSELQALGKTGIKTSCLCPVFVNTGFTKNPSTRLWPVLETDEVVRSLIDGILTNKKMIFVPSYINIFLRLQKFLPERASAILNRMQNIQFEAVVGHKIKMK

The molecule `O=C(Nc1sc(C2CC2)nc1C(=O)NCc1ccccc1C(F)(F)F)c1cc(Cl)c(O)c(Cl)n1` [Example 59, 2-cyclopropyl-5-(4,6-dichloro-5-hydroxypicolinamido)-N-(2-(trifluoromethyl)benzyl)thiazole-4-carboxamide] displayed an HSD17B14 fold selectivity on HSD17B14 of more than 331 fold. Moreover, at HSD17B13, the Ki was not above 50 nM.

On HSD17B14, `O=C(Nc1sc(-c2ccccc2F)nc1C(=O)NCc1ccccc1C(F)(F)F)c1cc(Cl)c(O)c(Cl)n1` [Example 60, 5-(4,6-dichloro-5-hydroxypicolinamido)-2-(2-fluorophenyl)-N-(2-(trifluoromethyl)benzyl) thiazole-4-carboxamide] displayed an HSD17B14 fold selectivity of more than 980 fold. Also, the Ki at HSD17B13 is not above 50 nM.

Consider `O=C(Nc1sc(-c2cncc(F)c2)nc1C(=O)NCc1ccccc1C(F)(F)F)c1cc(Cl)c(O)c(Cl)c1` [Example 75], for which the Ki on HSD17B13 is not above 50 nM.

Regarding `O=C(Nc1sc(-c2cncc(F)c2)nc1C(=O)NCc1ccccc1C(F)(F)F)c1cc(Cl)c(O)c(Cl)n1` [Example 76], the Ki at HSD17B13 is not above 50 nM.

Turning to `O=C(Nc1sc(-c2ccc[nH]c2=O)nc1C(=O)NCc1ccccc1C(F)(F)F)c1cc(Cl)c(O)c(Cl)c1` [Example 77], the Ki on HSD17B13 was not above 50 nM.

Regarding `O=C(Nc1sc(N2CCS(=O)(=O)CC2)nc1C(=O)NCc1ccccc1C(F)(F)F)c1cc(Cl)c(O)c(Cl)c1` [Example 79, 5-(3,5-dichloro-4-hydroxybenzamido)-2-(1,1-dioxidothiomorpholino)-N-(2-(trifluoromethyl)benzyl)thiazole-4-carboxamide], at HSD17B13, the Ki lay in the range of 100 to 500 nM.

Regarding `O=C(Nc1sc(N2CCOCC2)nc1C(=O)NCc1ccccc1C(F)(F)F)c1cc(Cl)c(O)c(Cl)n1` [Example 80, 5-(4,6-dichloro-5-hydroxypicolinamido)-2-morpholino-N-(2-(trifluoromethyl)benzyl)thiazole-4-carboxamide], at HSD17B13, the Ki is 100 to 500 nM.

Regarding `O=C(Nc1sc(C2CCOCC2)nc1C(=O)NCc1ccccc1C(F)(F)F)c1cc(Cl)c(O)c(Cl)n1` [Example 81, 5-(4,6-dichloro-5-hydroxypicolinamido)-2-(tetrahydro-2H-pyran-4-yl)-N-(2-(trifluoromethyl)benzyl)thiazole-4-carboxamide], on HSD17B13, the Ki is 100 to 500 nM.

With `O=C(Nc1sc(C2CCOCC2)nc1C(=O)NCc1ccccc1C(F)(F)F)c1cc(Cl)c(O)c(Cl)c1` [Example 82, 5-(3,5-dichloro-4-hydroxybenzamido)-2-(tetrahydro-2H-pyran-4-yl)-N-(2-(trifluoromethyl)benzyl)thiazole-4-carboxamide], the inhibition constant Ki at HSD17B13 lay within 100 to 500 nM.

Regarding `O=C(Nc1sc(C2CCCCC2)nc1C(=O)NCc1ccccc1C(F)(F)F)c1cc(Cl)c(O)c(Cl)c1` [Example 83], the Ki at HSD17B13 was not above 50 nM.

Take `O=C(Nc1sc(C2CCCCC2)nc1C(=O)NCc1ccccc1C(F)(F)F)c1cc(Cl)c(O)c(Cl)n1` [Example 84]: the Ki on HSD17B13 is not above 50 nM.

Take `CN1CC=C(c2nc(C(=O)NCc3ccccc3C(F)(F)F)c(NC(=O)c3cc(Cl)c(O)c(Cl)n3)s2)CC1` [Example 85, 5-(4,6-dichloro-5-hydroxypicolinamido)-2-(1-methyl-1,2,3,6-tetrahydropyridin-4-yl)-N-(2-(trifluoromethyl)benzyl) thiazole-4-carboxamide]: at HSD17B13, the Ki is 100 to 500 nM.

`CN1CCC(c2nc(C(=O)NCc3ccccc3C(F)(F)F)c(NC(=O)c3cc(Cl)c(O)c(Cl)n3)s2)CC1` [Example 86, 5-(4,6-dichloro-5-hydroxypicolinamido)-2-(1-methylpiperidin-4-yl)-N-(2-(trifluoromethyl)benzyl)thiazole-4-carboxamide]: the Ki on HSD17B13 fell in the range of 100 to 500 nM.

As to `CN1CCC(c2nc(C(=O)NCc3ccccc3C(F)(F)F)c(NC(=O)c3cc(Cl)c(O)c(Cl)c3)s2)CC1` [Example 87], the Ki on HSD17B13 was in the range of 100 to 500 nM.

In the case of `O=C(Nc1sc(-c2ccccc2Cl)nc1C(=O)NCc1ccccc1C(F)(F)F)c1cc(F)c(O)c(Cl)c1` [Example 89], the HSD17B14 fold selectivity at HSD17B14 is reported as 688 fold. Also, the Ki at HSD17B13 was not above 50 nM.

With `CS(=O)(=O)c1cccc(-c2nc(C(=O)NCc3ccccc3C(F)(F)F)c(NC(=O)c3cc(Cl)c(O)c(Cl)c3)s2)c1` [Example 97], the HSD17B14 fold selectivity at HSD17B14 is recorded as 772 fold. Further, on HSD17B13, the Ki is not above 50 nM.

For the molecule `CS(=O)(=O)c1cccc(-c2nc(C(=O)NCc3ccccc3C(F)(F)F)c(NC(=O)c3cc(Cl)c(O)c(Cl)n3)s2)c1` [Example 98], the HSD17B14 fold selectivity on HSD17B14 came to 928 fold. Besides, the Ki on HSD17B13 is not above 50 nM.

`CC(NC(=O)c1nc(-c2ccccc2)sc1NC(=O)c1cc(Cl)c(O)c(Cl)n1)c1ccccc1C(F)(F)F` (centres unmarked) [Example 99] yielded an HSD17B14 fold selectivity at HSD17B14 of 253 fold. For the same molecule, the Ki at HSD17B13 was not above 50 nM.

Consider `O=C(Nc1sc(-c2cnccn2)nc1C(=O)NCc1ccccc1C(F)(F)F)c1cc(Cl)c(O)c(Cl)c1` [Example 100], for which the HSD17B14 fold selectivity at HSD17B14 is recorded as more than 843 fold. In addition, the Ki at HSD17B13 was not above 50 nM.

As for `O=C(Nc1sc(-c2cnccn2)nc1C(=O)NCc1ccccc1C(F)(F)F)c1cc(Cl)c(O)c(Cl)n1` [Example 101], the HSD17B14 fold selectivity at HSD17B14 is listed as more than 142 fold. Also, the Ki on HSD17B13 was not above 50 nM.

`CC(NC(=O)c1nc(-c2cccnc2)sc1NC(=O)c1cc(Cl)c(O)c(Cl)c1)c1ccccc1C(F)(F)F` (centres unmarked) [Example 102] gave an HSD17B14 fold selectivity on HSD17B14 of more than 1230 fold. Moreover, at HSD17B13, the Ki is not above 50 nM.

Molecule `CC(NC(=O)c1nc(-c2cccnc2)sc1NC(=O)c1cc(Cl)c(O)c(Cl)n1)c1ccccc1C(F)(F)F` (centres unmarked) [Example 103] displayed an HSD17B14 fold selectivity at HSD17B14 of more than 1850 fold. Also, the Ki at HSD17B13 is not above 50 nM.

Consider `O=C(Nc1sc(-c2cc(CN3CCCC3)ccc2F)nc1C(=O)NCc1ccccc1C(F)(F)F)c1cc(F)c(O)c(Cl)c1` [Example 105, 5-(3-chloro-5-fluoro-4-hydroxybenzamido)-2-(2-fluoro-5-(pyrrolidin-1-ylmethyl)phenyl)-N-(2-(trifluoromethyl)benzyl)thiazole-4-carboxamide], for which, at HSD17B13, the Ki was 50 to 100 nM.

As to `O=C(Nc1sc(-c2ccccc2F)nc1C(=O)NCC12CC(C1)C2)c1cc(F)c(O)c(Cl)c1` [Example 106, N-(bicyclo[1.1.1]pentan-1-ylmethyl)-5-(3-chloro-5-fluoro-4-hydroxybenzamido)-2-(2-fluorophenyl)thiazole-4-carboxamide], the Ki at HSD17B13 was not above 50 nM.

As for `O=C(Nc1sc(-c2ccccc2F)nc1C(=O)NCc1ccccc1C(F)(F)F)c1cc(Cl)c(O)c(F)n1` [Example 107, 5-(4-chloro-6-fluoro-5-hydroxypicolinamido)-2-(2-fluorophenyl)-N-(2-(trifluoromethyl)benzyl)thiazole-4-carboxamide], the Ki at HSD17B13 was not above 50 nM.
